# Test results reported in US6485931B2, “CHOLESTEROL DEHYDROGENASE, COPROSTAN-3-ONE DEHYDROGENASE AND 4-CHOLESTEN-3-ONE DEHYDROGENASE, COMPOSITIONS CONTAINING THE DEHYDROGENASES, AND METHOD FOR REDUCING AMOUNT OF CHOLESTEROL USING THE COMPOSITIONS” (Kyowa Hakko Kogyo Co., Ltd., priority 1996, dated 2002).
# Columns and labels:
# [1] = tested on: 4-cholesten-3-one dehydrogenase B; experiment: 4-cholesten-3-one dehydrogenase B titer: coprostan-3-one produced, TLC/FID; assay type: biochemical, Eubacterium sp. CP 1; settings: for relative activity (enzyme activity without adding inhibitor is 100): 1 mM inhibitor, 30 minutes, pH 7.5, 37° C.; for relative activity in comparison with the case of no addition: 1 mM metal salt
# Experimental: (§1) An enzyme solution was allowed to stand still at 37° C. for 15 minutes using various pH buffer solutions, and remaining activity was measured, and pH range in which activity was not less than 50% of the maximum active value was regarded as a stable pH range. (The following is the same.)
# With 0.2 ml of 3 mM 4-cholesten-3-one micelle solution containing 0.33% Triton X-100 is mixed 0.3 ml of a 20 mM Tris-hydrochloric acid buffer solution (pH 7.5) containing 1.0% Triton X-100and 1 mM DTT, and 0.1 ml of a10 mM NADH solution, the resulted mixture is added 0.05 ml of an enzyme solution, reacted for 30 minutes at 37° C., and then added 0.1 ml of chloroform to extract sterol and to terminate the reaction.
# (§2) Then, the quantity of coprostan-3-one produced in the reaction solution is determined using TLC/FID iatroscan. The quantity of coprostan-3-one produced in the reaction solution is determined likewise using an inactivated enzyme which has been previously heated as a control. The enzyme activity which produces 1 μmol of coprostan-3-one per one minute is regarded as 1 unit.
# [2] = tested on: cholesterol in meat; experiment: enzymatic conversion to coprostanol in aging period of meat (Embodiment 10); assay type: biochemical; settings: minced beef, each enzyme 0.2 unit/g meat, PL-D 2 unit/g meat, 0.5 ml 20% nicotinamide, aged 7 days
# Experimental: 10 g of beef 6 hours after slaughtering was made into minced meat, and to this was added the cholesterol dehydrogenase obtained in Embodiment 5 (0.2 unit/g meat), the 4-cholesten-3-one dehydrogenase obtained in Embodiment 6 (0.2 unit/g meat) and the coprostan-3-one dehydrogenase obtained in Embodiment 7 (0.2 unit/g meat) and mixed, and the mixture was aged at 5° C. for 7 days. Also, mixtures to which 0.5 ml of a 20% aqueous nicotinamide solution had been further added, meat to which phospholipase (2 unit/g meat) had been further added and meat to which both of them had been further added at the mixing were aged at […] for 7 days, respectively.
# After aging, the meat was freeze-dried and lipid components were extracted with a 25 ml extraction solvent (chloroform:methanol=2:1). Regarding the resulting extracted sample, the amount of converted sterol products was determined using gas chromatography (manufactured by GL Science, TC-1701, column φ0.25 […]×30 m). In Table 5, PL-D represents phospholipase D and COP represents coprostanol, respectively.
# [3] = tested on: coprostan-3-one dehydrogenase A; experiment: coprostan-3-one dehydrogenase A titer: coprostanol produced, TLC/FID; assay type: biochemical, Eubacterium sp. CP 2; settings: for relative activity (enzyme activity without adding inhibitor defined as 100): 1 mM inhibitor, 30 minutes, pH 7.5, 37° C.; for relative activity in comparison with the case of no addition: 1 mM metal salt
# Experimental: as §1
# […] The enzyme solution was mixed with equal amounts of activating fractions and left for 15 minutes at 5° C., then used.
# (§3) Then, the quantity of coprostanol produced in the reaction solution is determined using TLC/FID iatroscan. The quantity of coprostanol in the reaction solution is determined likewise using an inactivated enzyme which has been previously heated as a control. The enzyme activity which produces 1 μmol of coprostanol per one minute is regarded as 1 unit.
# [4] = tested on: coprostan-3-one dehydrogenase B; experiment: coprostan-3-one dehydrogenase B titer: coprostanol produced, TLC/FID; assay type: biochemical, Eubacterium sp. CP 1; settings: for relative activity (enzyme activity without adding inhibitor is 100): 1 mM inhibitor, 30 minutes, pH 7.5, 37° C.; for relative activity in comparison to the case of no addition: 1 mM metal salt
# Experimental: as §1
# (§4) With 0.2 ml of 3 mM coprostan-3-one micelle solution containing 0.33% Triton X-100 is mixed 0.3 ml of a 20 mM Tris-hydrochloric acid buffer solution (pH 7.5) containing 1.0% Triton X-100 and 1 mM DTT, and 0.1 ml of a 10 mM NADPH solution, to the resulted mixture is added 0.05 ml of an enzyme solution, reacted for 30 minutes at 37° C., and then added 0.1 ml of chloroform to extract sterol and to terminate the reaction.
# as §3
# [5] = tested on: cholesterol dehydrogenase A; experiment: cholesterol dehydrogenase A titer: 4-cholesten-3-one produced from cholesterol micelle, TLC/FID; assay type: biochemical, Eubacterium sp. CP 2; settings: for relative activity (enzyme activity without adding inhibitor defined as 100): 1 mM inhibitor, 30 minutes, pH 7.5, 37° C.; for relative activity as substrate (activity of cholesterol is 100): substrate specificity; for relative activity in comparison with the case of no addition: 1 mM metal salt
# Experimental: as §1
# With 0.2 ml of 3 mM cholesterol micelle solution containing 0.33% Triton X-100 is mixed 0.3 ml of a 20 mM piperazine-N,N′-bis-(2-ethane […]) (hereinafter, referred to as “PIPES”) buffer solution (pH 7.5) containing 0.5% Triton X-100 and 1 mM dithiothreitol (hereinafter, referred to as “DTT”), and 0.1 ml of a 10 mM […] solution, the resulted mixture is added 0.05 ml of an enzyme solution, reacted for 30 minutes at 37° C., and then added 0.1 ml of chloroform to extract sterol and to terminate the reaction.
# as §2, with “4-cholesten-3-one” for “coprostan-3-one”
# [6] = tested on: cholesterol dehydrogenase B; experiment: cholesterol dehydrogenase B titer: 4-cholesten-3-one produced, TLC/FID; assay type: biochemical, Eubacterium sp. CP 1; settings: for relative activity (enzyme activity without adding inhibitor is 100): 1 mM inhibitor, 30 minutes, pH 7.5, 37° C.; for relative activity as substrate (activity of cholesterol defined as 100): substrate specificity; for relative activity in comparison to the case of no addition: 1 mM metal salt
# Experimental: as §1
# as §4, with “cholesterol” for “coprostan-3-one”, “50” for “20”, “phosphoric” for “Tris-hydrochloric”, “NADP” for “NADPH”
# Then, the quantity of 4-cholesten-3-one produced in the reaction solution is determined using TLC/FID iatroscan. […] The enzyme activity which produces 1 μmol of 4-cholesten-3-one per one minute is regarded as 1 unit.
# [7] = tested on: 4-cholesten-3-one dehydrogenase A; experiment: 4-cholesten-3-one dehydrogenase A titer: coprostan-3-one produced, TLC/FID; assay type: biochemical, Eubacterium sp. CP 2; settings: for relative activity (enzyme activity without adding inhibitor defined as 100): 1 mM inhibitor, 30 minutes, pH 7.5, 37° C.; for relative activity in comparison to the case of no addition: 1 mM metal salt; for relative activity as substrate (activity of 4-cholesten-3-one defined as 100): substrate specificity
# Experimental: as §1
# With 0.2 ml of 3 mM 4-cholesten-3-one micelle solution containing 0.33% Triton X-100 is mixed 0.3 ml of a 20 mM PIPES buffer solution (pH 7.5) containing 0.5% Triton X-100 and 1 mM DTT, and 0.1 ml of a 10 mM NADH solution, the resulted mixture is added 0.05 ml of an enzyme solution, and reacted for 30 minutes at 37° C., and then added 0.1 ml of chloroform to extract sterol and to terminate the reaction.
# as §2
# [8] = in vivo; cited from earlier work
molecule,measurement,setting,value
CC(C)CCC[C@@H](C)[C@H]1CC[C@H]2[C@@H]3CC=C4CC(=O)CC[C@]4(C)[C@H]3CC[C@]12C [5-cholestenon-3-one],relative activity as substrate (activity of 4-cholesten-3-one defined as 100),[1]; substrate specificity,0
"NC(=O)c1cccnc1 [Nicotinamide, nicotinamide]",COP conversion (%),[2],0%
"O=S(=O)(O)c1cc[c]([Hg][Cl])cc1 [PCMB, p-chloro mercury phenylsulfonate]",relative activity (enzyme activity without adding inhibitor defined as 100),[3],41
same,relative activity (enzyme activity without adding inhibitor is 100),[1],0
same,relative activity (enzyme activity without adding inhibitor is 100),[4],0
same,relative activity (enzyme activity without adding inhibitor defined as 100),[5],0
same,relative activity (enzyme activity without adding inhibitor is 100),[6],0
same,relative activity (enzyme activity without adding inhibitor defined as 100),[7],47
CC(C)[C@H](C)CC[C@@H](C)[C@H]1CC[C@H]2[C@@H]3CC=C4C[C@@H](O)CC[C@]4(C)[C@H]3CC[C@]12C [campesterol],relative activity as substrate (activity of cholesterol is 100),[5],74
same,relative activity as substrate (activity of cholesterol defined as 100),[6],50
[Cl][Cu][Cl] [copper chloride],relative activity in comparison with the case of no addition,[3],2.7
same,relative activity in comparison with the case of no addition,[1],0
same,relative activity in comparison to the case of no addition,[4],0
same,relative activity in comparison with the case of no addition,[5],3.2
same,relative activity in comparison to the case of no addition,[6],0
same,relative activity in comparison to the case of no addition,[7],0
CC(C)CCC[C@@H](C)[C@H]1CC[C@H]2[C@@H]3CC[C@@H]4C[C@@H](O)CC[C@]4(C)[C@H]3CC[C@]12C [coprostanol],absorbability through the intestinal tract,[8],very low
NC(=O)CI [iodine acetamide],relative activity (enzyme activity without adding inhibitor defined as 100),[3],82
same,relative activity (enzyme activity without adding inhibitor is 100),[1],99
same,relative activity (enzyme activity without adding inhibitor is 100),[4],95
same,relative activity (enzyme activity without adding inhibitor defined as 100),[5],82
same,relative activity (enzyme activity without adding inhibitor defined as 100),[7],94
O=C(O)CI [iodine acetic acid],relative activity (enzyme activity without adding inhibitor is 100),[6],98
"O=P([O-])([O-])[O-].[Na+].[Na+].[Na+] [phosphate ion, trisodium phosphate]",effect on conversion reaction by cholesterol dehydrogenase B,[6],remarkably activated
CC(=O)[C@H]1CC[C@H]2[C@@H]3CCC4=CC(=O)CC[C@]4(C)[C@H]3CC[C@]12C [progesterone],relative activity as substrate (activity of 4-cholesten-3-one defined as 100),[7],41
CC[C@H](/C=C/[C@@H](C)[C@H]1CC[C@H]2[C@@H]3CC=C4C[C@@H](O)CC[C@]4(C)[C@H]3CC[C@]12C)C(C)C [stigmasterol],relative activity as substrate (activity of cholesterol is 100),[5],30
same,relative activity as substrate (activity of cholesterol defined as 100),[6],39
C[C@]12CC[C@H]3[C@@H](CCC4=CC(=O)CC[C@@]43C)[C@@H]1CC[C@@H]2O [testosterone],relative activity as substrate (activity of 4-cholesten-3-one defined as 100),[7],0
CC[C@H](CC[C@@H](C)[C@H]1CC[C@H]2[C@@H]3CC=C4C[C@@H](O)CC[C@]4(C)[C@H]3CC[C@]12C)C(C)C [β sitosterol],relative activity as substrate (activity of cholesterol is 100),[5],38
same,relative activity as substrate (activity of cholesterol defined as 100),[6],67
iron chloride,relative activity in comparison with the case of no addition,[3],12
same,relative activity in comparison with the case of no addition,[1],107
same,relative activity in comparison to the case of no addition,[4],105
same,relative activity in comparison with the case of no addition,[5],95
same,relative activity in comparison to the case of no addition,[6],0
same,relative activity in comparison to the case of no addition,[7],110
prognerone,relative activity as substrate (activity of 4-cholesten-3-one defined as 100),[7],0
